According to the supplement of paper PMC8882468:

Each compound was assayed on HCI-001 (organoid from a triple-negative breast cancer xenograft) (assay: CTG-3D luminescence at 96 h relative to day-0 seeding control (ratio to day 0); higher = more growth / less cytotoxicity; PDxO 3D drug screen, 96 h, CTG-3D normalised to day-0 seeding control.). Settings: 1 µM; days in culture: 240.
With `CC(C)(C(=O)NCC(F)(F)C(F)(F)F)C(=O)N[C@@H]1C(=O)Nc2ccccc2-c2ccccc21` the “CTG-3D luminescence at 96 h” value was 1.16. For `CCN(c1cc(C#CCN2CCOCC2)cc(C(=O)NCc2c(C)cc(C)[nH]c2=O)c1C)[C@H]1CC[C@H](N(C)CCOC)CC1`, the “CTG-3D luminescence at 96 h” value was 1.48. With `NC(=O)Nc1cc(-c2cccc(F)c2)sc1C(=O)N[C@H]1CCCNC1` [AZD7762] the “CTG-3D luminescence at 96 h” value was 0.663. With `O=C(/C=C/c1cccnc1)NCCCCC1CCN(C(=O)c2ccccc2)CC1` [FK866] the “CTG-3D luminescence at 96 h” value was 0.113. With `CCc1c2c(nc3ccc(O)cc13)-c1cc3c(c(=O)n1C2)COC(=O)[C@]3(O)CC` [SN-38] the “CTG-3D luminescence at 96 h” value was 0.155. In the case of `CCN1CCN(Cc2ccc(Nc3ncc(F)c(-c4cc(F)c5nc(C)n(C(C)C)c5c4)n3)nc2)CC1` [abemaciclib], the “CTG-3D luminescence at 96 h” value is reported as 1.37. In the case of `C=CCn1c(=O)c2cnc(Nc3ccc(N4CCN(C)CC4)cc3)nc2n1-c1cccc(C(C)(C)O)n1` [adavosertib], the “CTG-3D luminescence at 96 h” value is reported as 0.618.

Same assay, conditions: 1 µM; days in culture: 260
For `CC(C)(C(=O)NCC(F)(F)C(F)(F)F)C(=O)N[C@@H]1C(=O)Nc2ccccc2-c2ccccc21`, the “CTG-3D luminescence at 96 h” value was 1.44. With `CCN(c1cc(C#CCN2CCOCC2)cc(C(=O)NCc2c(C)cc(C)[nH]c2=O)c1C)[C@H]1CC[C@H](N(C)CCOC)CC1` the “CTG-3D luminescence at 96 h” value was 1.85. `NC(=O)Nc1cc(-c2cccc(F)c2)sc1C(=O)N[C@H]1CCCNC1` [AZD7762] was tested, and the “CTG-3D luminescence at 96 h” value was 0.787. For `O=C(/C=C/c1cccnc1)NCCCCC1CCN(C(=O)c2ccccc2)CC1` [FK866], the “CTG-3D luminescence at 96 h” value was 0.107. In the case of `CCc1c2c(nc3ccc(O)cc13)-c1cc3c(c(=O)n1C2)COC(=O)[C@]3(O)CC` [SN-38], the “CTG-3D luminescence at 96 h” value is reported as 0.195. `CCN1CCN(Cc2ccc(Nc3ncc(F)c(-c4cc(F)c5nc(C)n(C(C)C)c5c4)n3)nc2)CC1` [abemaciclib] was tested, and the “CTG-3D luminescence at 96 h” value was 1.37. With `C=CCn1c(=O)c2cnc(Nc3ccc(N4CCN(C)CC4)cc3)nc2n1-c1cccc(C(C)(C)O)n1` [adavosertib] the “CTG-3D luminescence at 96 h” value was 1.04.

Same assay, conditions: 1 µM; days in culture: 269
In the case of `CC(C)(C(=O)NCC(F)(F)C(F)(F)F)C(=O)N[C@@H]1C(=O)Nc2ccccc2-c2ccccc21`, the “CTG-3D luminescence at 96 h” value is reported as 1.67. With `CCN(c1cc(C#CCN2CCOCC2)cc(C(=O)NCc2c(C)cc(C)[nH]c2=O)c1C)[C@H]1CC[C@H](N(C)CCOC)CC1` the “CTG-3D luminescence at 96 h” value was 1.24. With `NC(=O)Nc1cc(-c2cccc(F)c2)sc1C(=O)N[C@H]1CCCNC1` [AZD7762] the “CTG-3D luminescence at 96 h” value was 0.48. For `O=C(/C=C/c1cccnc1)NCCCCC1CCN(C(=O)c2ccccc2)CC1` [FK866], the “CTG-3D luminescence at 96 h” value was 0.0522. `CCc1c2c(nc3ccc(O)cc13)-c1cc3c(c(=O)n1C2)COC(=O)[C@]3(O)CC` [SN-38] was tested, and the “CTG-3D luminescence at 96 h” value was 0.161. In the case of `CCN1CCN(Cc2ccc(Nc3ncc(F)c(-c4cc(F)c5nc(C)n(C(C)C)c5c4)n3)nc2)CC1` [abemaciclib], the “CTG-3D luminescence at 96 h” value is reported as 1.17. For `C=CCn1c(=O)c2cnc(Nc3ccc(N4CCN(C)CC4)cc3)nc2n1-c1cccc(C(C)(C)O)n1` [adavosertib], the “CTG-3D luminescence at 96 h” value was 0.496.

Same assay, conditions: 1 µM; days in culture: 327
For `CC(C)(C(=O)NCC(F)(F)C(F)(F)F)C(=O)N[C@@H]1C(=O)Nc2ccccc2-c2ccccc21`, the “CTG-3D luminescence at 96 h” value was 1.29. `CCN(c1cc(C#CCN2CCOCC2)cc(C(=O)NCc2c(C)cc(C)[nH]c2=O)c1C)[C@H]1CC[C@H](N(C)CCOC)CC1` was tested, and the “CTG-3D luminescence at 96 h” value was 1.79. `NC(=O)Nc1cc(-c2cccc(F)c2)sc1C(=O)N[C@H]1CCCNC1` [AZD7762] was tested, and the “CTG-3D luminescence at 96 h” value was 0.567. For `O=C(/C=C/c1cccnc1)NCCCCC1CCN(C(=O)c2ccccc2)CC1` [FK866], the “CTG-3D luminescence at 96 h” value was 0.0812. In the case of `CCc1c2c(nc3ccc(O)cc13)-c1cc3c(c(=O)n1C2)COC(=O)[C@]3(O)CC` [SN-38], the “CTG-3D luminescence at 96 h” value is reported as 0.127. `CCN1CCN(Cc2ccc(Nc3ncc(F)c(-c4cc(F)c5nc(C)n(C(C)C)c5c4)n3)nc2)CC1` [abemaciclib] was tested, and the “CTG-3D luminescence at 96 h” value was 1.36. `C=CCn1c(=O)c2cnc(Nc3ccc(N4CCN(C)CC4)cc3)nc2n1-c1cccc(C(C)(C)O)n1` [adavosertib] was tested, and the “CTG-3D luminescence at 96 h” value was 1.18.

Same assay, conditions: 1 µM; days in culture: 346
For `CC(C)(C(=O)NCC(F)(F)C(F)(F)F)C(=O)N[C@@H]1C(=O)Nc2ccccc2-c2ccccc21`, the “CTG-3D luminescence at 96 h” value was 1.26. In the case of `CCN(c1cc(C#CCN2CCOCC2)cc(C(=O)NCc2c(C)cc(C)[nH]c2=O)c1C)[C@H]1CC[C@H](N(C)CCOC)CC1`, the “CTG-3D luminescence at 96 h” value is reported as 1.5. `NC(=O)Nc1cc(-c2cccc(F)c2)sc1C(=O)N[C@H]1CCCNC1` [AZD7762] was tested, and the “CTG-3D luminescence at 96 h” value was 0.392. `O=C(/C=C/c1cccnc1)NCCCCC1CCN(C(=O)c2ccccc2)CC1` [FK866] was tested, and the “CTG-3D luminescence at 96 h” value was 0.0715. `CCc1c2c(nc3ccc(O)cc13)-c1cc3c(c(=O)n1C2)COC(=O)[C@]3(O)CC` [SN-38] was tested, and the “CTG-3D luminescence at 96 h” value was 0.105. With `CCN1CCN(Cc2ccc(Nc3ncc(F)c(-c4cc(F)c5nc(C)n(C(C)C)c5c4)n3)nc2)CC1` [abemaciclib] the “CTG-3D luminescence at 96 h” value was 1.17. In the case of `C=CCn1c(=O)c2cnc(Nc3ccc(N4CCN(C)CC4)cc3)nc2n1-c1cccc(C(C)(C)O)n1` [adavosertib], the “CTG-3D luminescence at 96 h” value is reported as 1.48.

Same assay, conditions: 1 µM; days in culture: 364
`CC(C)(C(=O)NCC(F)(F)C(F)(F)F)C(=O)N[C@@H]1C(=O)Nc2ccccc2-c2ccccc21` was tested, and the “CTG-3D luminescence at 96 h” value was 1.14. `CCN(c1cc(C#CCN2CCOCC2)cc(C(=O)NCc2c(C)cc(C)[nH]c2=O)c1C)[C@H]1CC[C@H](N(C)CCOC)CC1` was tested, and the “CTG-3D luminescence at 96 h” value was 1.17. `NC(=O)Nc1cc(-c2cccc(F)c2)sc1C(=O)N[C@H]1CCCNC1` [AZD7762] was tested, and the “CTG-3D luminescence at 96 h” value was 0.466. For `O=C(/C=C/c1cccnc1)NCCCCC1CCN(C(=O)c2ccccc2)CC1` [FK866], the “CTG-3D luminescence at 96 h” value was 0.0511. For `CCc1c2c(nc3ccc(O)cc13)-c1cc3c(c(=O)n1C2)COC(=O)[C@]3(O)CC` [SN-38], the “CTG-3D luminescence at 96 h” value was 0.0835. `CCN1CCN(Cc2ccc(Nc3ncc(F)c(-c4cc(F)c5nc(C)n(C(C)C)c5c4)n3)nc2)CC1` [abemaciclib] was tested, and the “CTG-3D luminescence at 96 h” value was 0.909. For `C=CCn1c(=O)c2cnc(Nc3ccc(N4CCN(C)CC4)cc3)nc2n1-c1cccc(C(C)(C)O)n1` [adavosertib], the “CTG-3D luminescence at 96 h” value was 0.983.

Same assay, conditions: 10 µM; days in culture: 240
With `CC(C)(C(=O)NCC(F)(F)C(F)(F)F)C(=O)N[C@@H]1C(=O)Nc2ccccc2-c2ccccc21` the “CTG-3D luminescence at 96 h” value was 0.943. With `CCN(c1cc(C#CCN2CCOCC2)cc(C(=O)NCc2c(C)cc(C)[nH]c2=O)c1C)[C@H]1CC[C@H](N(C)CCOC)CC1` the “CTG-3D luminescence at 96 h” value was 1.35. In the case of `NC(=O)Nc1cc(-c2cccc(F)c2)sc1C(=O)N[C@H]1CCCNC1` [AZD7762], the “CTG-3D luminescence at 96 h” value is reported as 0.189. `O=C(/C=C/c1cccnc1)NCCCCC1CCN(C(=O)c2ccccc2)CC1` [FK866] was tested, and the “CTG-3D luminescence at 96 h” value was 0.0983. For `CCc1c2c(nc3ccc(O)cc13)-c1cc3c(c(=O)n1C2)COC(=O)[C@]3(O)CC` [SN-38], the “CTG-3D luminescence at 96 h” value was 0.0446. For `CCN1CCN(Cc2ccc(Nc3ncc(F)c(-c4cc(F)c5nc(C)n(C(C)C)c5c4)n3)nc2)CC1` [abemaciclib], the “CTG-3D luminescence at 96 h” value was 0.799. In the case of `C=CCn1c(=O)c2cnc(Nc3ccc(N4CCN(C)CC4)cc3)nc2n1-c1cccc(C(C)(C)O)n1` [adavosertib], the “CTG-3D luminescence at 96 h” value is reported as 0.244.

Same assay, conditions: 10 µM; days in culture: 260
With `CC(C)(C(=O)NCC(F)(F)C(F)(F)F)C(=O)N[C@@H]1C(=O)Nc2ccccc2-c2ccccc21` the “CTG-3D luminescence at 96 h” value was 1.29. With `CCN(c1cc(C#CCN2CCOCC2)cc(C(=O)NCc2c(C)cc(C)[nH]c2=O)c1C)[C@H]1CC[C@H](N(C)CCOC)CC1` the “CTG-3D luminescence at 96 h” value was 1.89. For `NC(=O)Nc1cc(-c2cccc(F)c2)sc1C(=O)N[C@H]1CCCNC1` [AZD7762], the “CTG-3D luminescence at 96 h” value was 0.243. For `O=C(/C=C/c1cccnc1)NCCCCC1CCN(C(=O)c2ccccc2)CC1` [FK866], the “CTG-3D luminescence at 96 h” value was 0.113. With `CCc1c2c(nc3ccc(O)cc13)-c1cc3c(c(=O)n1C2)COC(=O)[C@]3(O)CC` [SN-38] the “CTG-3D luminescence at 96 h” value was 0.0569. For `CCN1CCN(Cc2ccc(Nc3ncc(F)c(-c4cc(F)c5nc(C)n(C(C)C)c5c4)n3)nc2)CC1` [abemaciclib], the “CTG-3D luminescence at 96 h” value was 1.23. For `C=CCn1c(=O)c2cnc(Nc3ccc(N4CCN(C)CC4)cc3)nc2n1-c1cccc(C(C)(C)O)n1` [adavosertib], the “CTG-3D luminescence at 96 h” value was 0.27.

Same assay, conditions: 10 µM; days in culture: 269
In the case of `CC(C)(C(=O)NCC(F)(F)C(F)(F)F)C(=O)N[C@@H]1C(=O)Nc2ccccc2-c2ccccc21`, the “CTG-3D luminescence at 96 h” value is reported as 2.38. For `CCN(c1cc(C#CCN2CCOCC2)cc(C(=O)NCc2c(C)cc(C)[nH]c2=O)c1C)[C@H]1CC[C@H](N(C)CCOC)CC1`, the “CTG-3D luminescence at 96 h” value was 1.91. With `NC(=O)Nc1cc(-c2cccc(F)c2)sc1C(=O)N[C@H]1CCCNC1` [AZD7762] the “CTG-3D luminescence at 96 h” value was 0.388. In the case of `O=C(/C=C/c1cccnc1)NCCCCC1CCN(C(=O)c2ccccc2)CC1` [FK866], the “CTG-3D luminescence at 96 h” value is reported as 0.0578. In the case of `CCc1c2c(nc3ccc(O)cc13)-c1cc3c(c(=O)n1C2)COC(=O)[C@]3(O)CC` [SN-38], the “CTG-3D luminescence at 96 h” value is reported as 0.0511. For `CCN1CCN(Cc2ccc(Nc3ncc(F)c(-c4cc(F)c5nc(C)n(C(C)C)c5c4)n3)nc2)CC1` [abemaciclib], the “CTG-3D luminescence at 96 h” value was 0.68. In the case of `C=CCn1c(=O)c2cnc(Nc3ccc(N4CCN(C)CC4)cc3)nc2n1-c1cccc(C(C)(C)O)n1` [adavosertib], the “CTG-3D luminescence at 96 h” value is reported as 0.254.
